Results reported in PMC5601360 (Journal of Medicinal Chemistry, 2017).

Assays:
[1] = target: T1, human KOP receptor (Homo sapiens, UniProt P41145); test: Competition binding assay, CHO-hKOP cell membranes, [3H]U69,593; settings: for Ki: CHO-hKOP membranes, mean ± SEM, read-out: receptor binding affinity Ki KOP; for selectivity DOP/KOP: Ki ratio DOP/KOP; for selectivity MOP/KOP: Ki ratio MOP/KOP
T1 construct: expressed in transfected cells; host or cells: CHO-hKOP cells (gift of Dr. Lawrence Toll, SRI International)
Protocol: (§1) CHO cells stably expressing recombinant human KOP, MOP, or DOP receptors (CHO-hKOP, CHO-hMOP, and CHO-hDOP cell lines) were kindly provided by Dr. Lawrence Toll (SRI International, Menlo Park, CA). The CHO-hKOP cell line was maintained in Dulbecco’s Minimal Essential Medium (DMEM) supplemented with fetal bovine serum (FBS, 10%), penicillin/streptomycin (0.1%), L-glutamine (2 mM), and geneticin (400 μg/mL). The CHO-hMOP and CHO-hDOP cell lines were maintained in DMEM/Ham’s F-12 medium supplemented with FBS (10%), penicillin/streptomycin (0.1%), L-glutamine (2 mM), and geneticin (400 μg/mL). Cell cultures were maintained at 37 °C in 5% CO2 humidified air.
(§2) Nonspecific binding was determined using 1–10 μM of the unlabeled counterpart of each radioligand. Assays were performed in 50 mM Tris-HCl buffer (pH 7.4) in a final volume of 1 mL. Cell membranes (15–20 μg) were incubated with the appropriate radioligand and various concentrations of test compound for 60 min at 25 °C. After incubation, reactions were terminated by rapid filtration through Whatman glass fiber filters. Filters were washed three times with 5 mL of ice-cold 50 mM Tris-HCl buffer (pH 7.4) using a Brandel M24R cell harvester (Gaithersburg, MD). Radioactivity retained on the filters was counted by liquid scintillation counting using a Beckman Coulter LS6500 (Beckman Coulter Inc., Fullerton, CA). All binding experiments were performed in duplicate and repeated at least three times. The inhibitory constant Ki values (in nM) were calculated from the competition binding curves by nonlinear regression analysis and the Cheng–Prusoff equation.[16]

[2] = target: T2, human MOP receptor (Homo sapiens, UniProt P35372); test: Competition binding assay, CHO-hMOP cell membranes, [3H]DAMGO; settings: mean ± SEM, read-out: receptor binding affinity Ki MOP
T2 construct: expressed in transfected cells; host or cells: CHO-hMOP cells (gift of Dr. Lawrence Toll, SRI International)
Protocol: as §1
as §2, with “. Nonspecific” for “Nonspecific”

[3] = target: T3, human DOP receptor (Homo sapiens, UniProt P41143); test: Competition binding assay, CHO-hDOP cell membranes, [3H]diprenorphine; settings: mean ± SEM, read-out: receptor binding affinity Ki DOP
T3 construct: expressed in transfected cells; host or cells: CHO-hDOP cells (gift of Dr. Lawrence Toll, SRI International)
Protocol: as §1
as §2, with “. Nonspecific” for “Nonspecific”

[4] = target: T1, human KOP receptor; test: [35S]GTPγS binding assay using CHO-hKOP cell membranes; format: biochemical; settings: for EC50: CHO-hKOP membranes, mean ± SEM; for Emax: read-out: [35S]GTPγS KOP % stim
Protocol: The binding of [^35S]GTPγS to membranes from CHO cells stably expressing human KOP receptors (CHO-hKOP cells) was conducted according to the published procedures.[9a],[9b] CHO-hKOP cell membranes were prepared in buffer A (20 mM HEPES, 10 mM MgCl2, and 100 mM NaCl, pH 7.4). Cell membranes (8–15 μg) in buffer A were incubated with 0.05 nM [^35S]GTPγS, 10 μM GDP, and various concentrations of test compound in a final volume of 1 mL for 60 min at 25 °C. Nonspecific binding was determined using 10 μM GTPγS, and the basal binding was determined in the absence of test ligand. Samples are filtered over glass fiber filters and counted as described for binding assays. […] To determine the KOP antagonist activity, a concentration–response curve for U69,593 was obtained by assessing the [^35S]GTPγS binding to CHO-hKOP cell membranes in the presence or absence of test compound, as previously described.[9b] For each compound, the Schild analysis was conducted, utilizing a full agonist–dose response curve in the presence of at least two concentrations of the antagonist. The equilibrium dissociation constant (Ke) was calculated from the equation Ke = [a]/(DR – 1), where “a” is the concentration of antagonist and DR the virtual shift of the agonist concentration–response curve to the right in the presence of a given concentration of antagonist. All experiments were performed in duplicate and repeated at least three times.

[5] = test system: acetic acid-induced writhing in CD1 mice; test: Acetic acid-induced writhing assay in mice after sc administration; format: in vivo; settings: sc; for ED50: Mus musculus, 0.5 h, CD1 mice, inhibition of writhing at 30 min after drug administration, read-out: antinociceptive ED50 (95% CI)
Protocol: Male CD1 mice (30–35 g, 6–8 weeks old) were obtained from the Center of Biomodels and Experimental Medicine (CBEM) (Innsbruck, Austria) or Charles River (Sulzfeld, Germany). Mice were group-housed in a temperature controlled room with a 12 h light/dark cycle and with free access to food and water. All animal studies were conducted in accordance with ethical guidelines and animal welfare standards according to Austrian regulations for animal research and were approved by the Committee of Animal Care of the Austrian Federal Ministry of Science and Research. Solutions of test compounds were prepared as 1% DMSO solutions in sterile physiological 0.9% saline and further diluted to working doses in saline solution. Test compounds or vehicle (saline) were administered by sc route in a volume of 10 μL/1 g of body weight. All doses are expressed in terms of salts. Separate groups of mice received the respective dose of compound, and individual mice were only used once for behavioral testing. Each experimental group included at least five animals.
Writhing was induced in male CD1 mice by intraperitoneal (ip) injection of a 0.6% acetic acid aqueous solution as described previously.[9a] Groups of mice were administered sc different doses of test compound or saline (control), and then 5 min prior to testing (25 min after drug or saline) each animal received an ip injection of acetic acid solution. Each mouse was placed in individual transparent Plexiglas chambers, and the number of writhes was counted during a 10 min observation period. […] For the antagonism studies, nor-BNI (20 mg/kg) was sc administered 24 h before 2 (5 mg/kg) and 17 (10 mg/kg) was sc administered 15 min before U50,488 (2 mg/kg).

[6] = percentage stimulation relative to the KOP full agonist U69,593

Compound	Ki [1]	selectivity DOP/KOP [1]	selectivity MOP/KOP [1]	increase in selectivity KOP vs DOP compared to compound 14 ([1]; selectivity ratio comparison)	increase in selectivity KOP vs MOP compared to compound 14 ([1]; selectivity ratio comparison)	Ki [2]	Ki [3]	EC50 [4]	Emax [4, 6]	ED50 [5]	decrease in in vitro agonist potency vs compound 3 ([4]; EC50 comparison)	reduction in antinociceptive potency vs compound 3 ([5]; ED50 comparison)	[35S]GTPγS KOP % stim [4, 6]	lower KOP affinity vs compound 4 ([1]; Ki comparison)
Cl.Oc1ccc(CCN(CCc2cccc(O)c2F)CC2CCC2)cc1 [Compound 21, 3-[2-[(Cyclobutylmethyl)(4-hydroxyphenethyl)amino]ethyl]-2-fluorophenol Hydrochloride]	3.37 ± 1.54 nM	389	155	3 fold	31 fold	523 ± 33 nM	1310 ± 281 nM	36.7 ± 14 nM	69.1 ± 1.9%	2.14 mg/kg				
CC(C)CCN(CCc1ccccc1)CCc1cccc(O)c1.Cl [Compound 7, 3-[2-[(Isoamyl)(phenethyl)amino]ethyl]phenol Hydrochloride]	2.69 ± 0.43 nM	1020	96			259 ± 86 nM	2740 ± 677 nM	22.1 ± 3.1 nM	74.7 ± 3.6%	2.78 mg/kg				
Cl.Oc1cccc(CCN(CCc2cccc(O)c2)CC2CCCC2)c1 [Compound 12, 3,3′-[2,2′-(Cyclopentylmethylazanediyl)bis(ethane-2,1-diyl)]diphenol Hydrochloride]	0.31 ± 0.04 nM	8952	1884			584 ± 119 nM	2780 ± 545 nM	13.7 ± 3.5 nM	≥ 80%	1.19 mg/kg	about 3 fold	about 2 fold		
C=CCN(CCc1ccc(O)cc1)CCc1cccc(O)c1 [Compound 16]	43.5 ± 1.5 nM	25	4			192 ± 17 nM	1100 ± 485 nM	248 ± 89 nM	28.5%					
Cl.Oc1cccc(CCN(CCc2cccc(O)c2)CC2CCC2)c1 [Compound 8, 3,3′-[2,2′-(Cyclobutylmethylazanediyl)bis(ethane-2,1-diyl)]diphenol Hydrochloride]	0.38 ± 0.09 nM	8789	605			230 ± 43 nM	3340 ± 844 nM	4.44 ± 1.36 nM	71.1 ± 5.2%	1.71 mg/kg				
Cl.Oc1cccc(CCN(CCc2ccccc2)C2CCC2)c1 [Compound 6, 3-[2-[(Cyclobutyl)(phenethyl)amino]ethyl]phenol Hydrochloride]	10.3 ± 1.2 nM	344	65			670 ± 174 nM	3540 ± 38 nM	46.1 ± 13.9 nM	50.7 ± 5%					
Cl.Oc1ccc(CCN(CCc2cccc(O)c2)CC2CCC2)cc1 [Compound 14, 3-[2-[(Cyclobutylmethyl)(4-hydroxyphenethyl)amino]ethyl]phenol Hydrochloride]	3.43 ± 0.75 nM	125	5			16.1 ± 4.7 nM	428 ± 93 nM	22.2 ± 3.6 nM	76.4 ± 1.1%	1.73 mg/kg				
C=CCN(CCc1cccc(O)c1)CCc1cccc(O)c1.Cl [Compound 10, 3,3′-[2,2′-(Allylazanediyl)bis(ethane-2,1-diyl)]diphenol Hydrochloride]	19.1 ± 0.6 nM	39	19			358 ± 28 nM	738 ± 16 nM	154 ± 62 nM	37.5%				37.5 ± 0.6%	
Cl.Oc1ccc(CCN(CCc2cccc(O)c2)CC2CCCCC2)cc1 [Compound 15, 3-[2-[(Cyclohexylmethyl)(4-hydroxyphenethyl)amino]ethyl]phenol Hydrochloride]	1.85 ± 0.07 nM					234 ± 112 nM	1640 ± 557 nM	22.2 ± 7.2 nM	≥ 80%	1.9 mg/kg				
Cl.Oc1cccc(CCN(CCc2ccccc2)Cc2ccccc2)c1 [Compound 5, 3-[2-[(Benzyl)(phenethyl)amino]ethyl]phenol Hydrochloride]	0.71 ± 0.25 nM	2623	652			463 ± 95 nM	1860 ± 501 nM	4.65 ± 1.63 nM	≥ 80%	1.21 mg/kg				
Cl.Oc1cccc(CCN(CCc2cccc(O)c2)CC2CC2)c1 [Compound 9, 3,3′-[2,2′-(Cyclopropylmethylazanediyl)bis(ethane-2,1-diyl)]diphenol Hydrochloride]	4.62 ± 0.11 nM	617	137			631 ± 215 nM	2850 ± 720 nM	20.6 ± 0.6 nM	51.3 ± 7.6%	4.73 mg/kg				
c1ccc(CCN(CCc2ccccc2)CC2CCC2)cc1 [Compound 22, N-(Cyclobutylmethyl)-N-phenethyl-2-phenylethanamine]	79.1 ± 12.5 nM	28	13			1060 ± 263 nM	2180 ± 881 nM	359 ± 116 nM	≥ 80%					
Cl.Oc1cccc(CCN(CCc2cccc(O)c2)CC2CCCCC2)c1 [Compound 11, 3,3′-[2,2′-(Cyclohexylmethylazanediyl)bis(ethane-2,1-diyl)]diphenol Hydrochloride]	0.14 ± 0.04 nM	10229	1193			167 ± 52 nM	1430 ± 506 nM	17.6 ± 7.1 nM	≥ 80%	0.95 mg/kg				about 2 fold
